{"source": "patent US20090264310A1", "about": "“SCREENING METHOD FOR THE ISOLATION OF CENTROSOMAL CLUSTER-INHIBITORS AS ANTI-CANCER AGENTS” (priority 2006, published 2009)", "key": {"SCC114 cells [1]": {"system": "SCC114 cells", "assay": "Mitotic cells by phospho-histone H3 two-parameter flow cytometry", "format": "cell-based, human", "conditions": "SCC114, 35 μM griseofulvin, 24 hours (29.1% prior to treatment)", "procedure": "(§1) Cells were plated in 6-well plates (Greiner Bio-One, Kremsmuenster; Austria), treated 24 h later with different concentrations of griseofulvin and incubated for 24 h. Both attached and unattached cells were harvested and washed with PBS. For cell cycle, analysis cells were fixed in −20° C. methanol (70%) for at least 45 min. Cells were then washed with PBS and incubated in propidiumodide buffer containing 0.01 mg/ml propidiumiodide (Molecular Probes) and 0.25 mg/ml RNase A (Roth, Karlsruhe, Germany) for 30 min. For the histone H3-assay, cells were fixed in 70% ethanol, incubated with 0.25% Triton X-100/PBS for 15 min on ice, and stained with rabbit antibody to phospho-histone H3 (1:500; Upstate Biotechnology) for 2 h at room temperature, followed by 1 h of incubation with Alexa 488 conjugated anti-rabbit IgG (1:1000; Molecular Probes). DNA was counterstained with propidiumiodide buffer (see above) for 30 minutes at 37° C. Cells were analyzed with a FACScan flow cytometer (Becton Dickinson, Heidelberg, Germany) using CellQuest Software."}, "BJ fibroblasts [2]": {"system": "BJ fibroblasts", "assay": "Mitotic cells by phospho-histone H3 two-parameter flow cytometry", "format": "cell-based, human", "conditions": "35 μM griseofulvin, 24 hours (4.1% prior to treatment)", "procedure": "as §1"}, "MCF7 cells": {"system": "MCF7 cells", "assay": "Induction of multipolar mitotic spindles (immunofluorescence)", "format": "cell-based, human", "conditions": "24 hours", "procedure": "(§2) All cell lines (BJ fibroblasts (available from ATCC), SCC114 (18), HeLa (ATCC), MCF7 (ATCC), N115 and U2OS (ATCC) were cultured in Dulbecco's modified Eagle's Medium (DMEM, PAA Laboratories, Pasching, Germany) supplemented with 10% FCS (PAA), 20 U/ml penicillin and 20 μg/ml streptomycin (Biochrom, Berlin, Germany) at 37° C., 5% CO2. SCC114-D1 cells stably expressing GFP-α-tubulin were generated by transfection (Fugene 6, Roche Diagnostics, Mannheim, Germany) of the transgene in pEGFP-C1 (Clontech, Heidelberg, Germany) and maintained under selective pressure by addition of geniticin (Gibco, Invitrogen, Karlsruhe, Germany) into complete medium at a concentration of […]. When indicated, griseofulvin (Sigma, Deisenhofen, Germany) was added to culture medium at several concentrations (0-100 μM), and incubation was continued for 24-72 h. Griseofulvin was dissolved in DMSO (Sigma); the final DMSO concentration in all experiments was 0.1%.\n(§3) Cells grown on glass coverslips were fixed in −20° C. methanol/acetone (1:1) for 7 min. After blocking non-specific sites with 10% goat serum (Sigma)/PBS for 5 min, the cells were incubated with primary antibodies for 1 h. Unlabelled antibodies were used at following dilutions: mouse monoclonal antibody to Eg5, 1:500 (Transduction Laboratories, Lexington, Ky.); mouse monoclonal antibody to γ-tubulin (GTU-88) at 1:300, rabbit polyclonal antibody to γ-tubulin at 1:100, and mouse monoclonal antibody to α-tubulin at 1:500 (Sigma, Deisenhofen, Germany); rabbit anti-phospho-histone H3, 1:500 (Upstate Biotechnology, Lake Placid, N.Y.); mouse monoclonal antibody to dynein, 1:50 (Chemicon International, Hampshire, UK); mouse monoclonal antibody to NuMA, 1:50 (Calbiochem, Darmstadt, Germany). Coverslips were then washed three times with PBS and incubated with secondary antibodies for 25 min before adding DAPI to a final concentration of 0.1 μg/ml (Sigma) to the antibody dilution for additional 5 min. The following fluorchrome-conjugated secondary antibodies were used: rabbit Alexa 488, 1:1000 (Molecular Probes, Invitrogen, Karlsruhe, Germany) and mouse Cy3, 1:400 (Jackson ImmunoResearch Laboratories, West Grove, PN). Coverslips were washed three times with PBS, rinsed shortly with water and post-fixed in absolute ethanol for 1 min. Airdryed Coverslips were embedded in Vectashield (Vector Laboratories, Burlingame, Calif.) or Fluoromount G (Southern Biotech, Birmingham, Ala.). Immunostained cells were examined using a Zeiss Axiovert 200 M fluorescence microscope (Göttingen, Germany) and images were processed with Photoshop (Adobe, München, Germany) software."}, "HeLa cells [3]": {"system": "HeLa cells", "assay": "Induction of multipolar mitotic spindles (immunofluorescence)", "format": "cell-based, human", "conditions": "100 μM griseofulvin, 24 hours", "procedure": "as §2, §3"}, "SCC114 cells [4]": {"system": "SCC114 cells", "assay": "Induction of multipolar mitotic spindles (immunofluorescence)", "format": "cell-based, human", "conditions": "SCC114, 20 μM griseofulvin, 24 hours", "procedure": "as §2, §3"}, "U2OS cells": {"system": "U2OS cells", "assay": "Induction of multipolar mitotic spindles (immunofluorescence)", "format": "cell-based, human", "conditions": "100 μM griseofulvin, 24 hours", "procedure": "as §2, §3"}, "BJ fibroblasts [5]": {"system": "BJ fibroblasts", "assay": "Induction of multipolar mitotic spindles (immunofluorescence)", "format": "cell-based, human", "conditions": "24 hours", "procedure": "as §2, §3"}, "SCC114 cells [6]": {"system": "SCC114 cells", "assay": "Dynein and NuMA localization on mitotic spindles (immunofluorescence)", "format": "cell-based, human", "conditions": "SCC114, 100 μM griseofulvin, 24 hours", "procedure": "as §3, with “The following fluorchrome-conjugated secondary antibodies were used: rabbit Alexa 488, 1:1000 (Molecular Probes, Invitrogen, Karlsruhe, Germany) and mouse Cy3, 1:400 (Jackson ImmunoResearch Laboratories, West Grove, PN). Coverslips were washed three times with PBS, rinsed shortly with water and post-fixed in absolute ethanol for 1 min. Airdryed Coverslips were embedded in Vectashield (Vector Laboratories, Burlingame, Calif.) or Fluoromount G (Southern Biotech, Birmingham, Ala.).” left out, “software. […]” for “software.”"}, "HeLa cells [7]": {"system": "HeLa cells", "assay": "G2/M cell cycle arrest, propidium iodide flow cytometry", "format": "cell-based, human", "conditions": "20 μM griseofulvin, 24 hours", "procedure": "as §1"}, "SCC114 cells [8]": {"system": "SCC114 cells", "assay": "G2/M cell cycle arrest, propidium iodide flow cytometry", "format": "cell-based, human", "conditions": "SCC114, 20 μM griseofulvin, 24 hours", "procedure": "as §1"}, "BJ fibroblasts [9]": {"system": "BJ fibroblasts", "assay": "G2/M cell cycle arrest, propidium iodide flow cytometry", "format": "cell-based, human", "conditions": "20 μM griseofulvin, 24 hours", "procedure": "as §1"}, "BJ fibroblasts [10]": {"system": "BJ fibroblasts", "assay": "Colorimetric MTT cytotoxicity assay", "format": "cell-based", "conditions": "Homo sapiens, Fibroblast, highest concentration 100 μM, read-out: growth inhibition", "procedure": "(§4) The cytotoxicity assay was performed as previously described (53). Briefly, MTT (Thiazolyl Blue Tetrazolium Blue; Sigma) was dissolved in PBS at 5 mg/ml and filtered. 0.3×10^5 cells were plated in 96 well plates (Nunc) 24 h before addition of griseofulvin. Cells were then treated with different concentrations of griseofulvin for 22 h. Stock MTT solution (10 μl per 100 μl medium) was added to all wells, and plates were incubated additional 2 h at 37° C. Medium was discarded, 200 μl DMSO was added to each well and incubated for 20 minutes at 37° C. When all crystals were dissolved, the plates were read on a microtiterplate […] reader (Tecan, Crailsheim, Germany), using a test wavelength of 650 nm and a reference wavelength of 750 nm."}, "[11]": {"assay": "Colorimetric MTT cytotoxicity assay", "format": "cell-based", "conditions": "human, SCC114 cells, SCC114, 0-100 μM, read-out: IC50 cytotoxicity / half-maximal inhibition of cell growth", "procedure": "as §4"}, "[12]": {"system": "N115 mouse neuroblastoma cells", "assay": "Inhibition of centrosome coalescence and microtubule network in interphase cells (immunofluorescence)", "format": "cell-based", "conditions": "N115, 50 μM griseofulvin, 24 hours", "procedure": "as §2\nCells grown on glass coverslips were fixed in −20° C. methanol/acetone (1:1) for 7 min. After blocking non-specific sites with 10% goat serum (Sigma)/PBS for 5 min, the cells were incubated with primary antibodies for 1 h. […] Immunostained cells were examined using a Zeiss Axiovert 200 M fluorescence microscope (Göttingen, Germany) and images were processed with Photoshop (Adobe, München, Germany) software. […]"}}, "data": [{"smiles": "COC1=CC(=O)C[C@@H](C)[C@]12Oc1c(Cl)c(OC)cc(OC)c1C2=O", "note": "[griseofulvin]", "values": [{"measurement": "percentage of cells in mitosis", "setting": "SCC114 cells [1]", "result": 56.4, "unit": "%"}, {"measurement": "percentage of cells in mitosis", "setting": "BJ fibroblasts [2]", "result": 5.5, "unit": "%"}, {"measurement": "percentage of multipolar spindles", "setting": "MCF7 cells; MCF7, 20 μM griseofulvin", "result": 20, "unit": "%"}, {"measurement": "percentage of mitoses multipolar", "setting": "MCF7 cells; MCF7, 100 μM griseofulvin", "result": "more than 85%"}, {"measurement": "percentage of mitoses multipolar", "setting": "HeLa cells [3]", "result": "more than 85%"}, {"measurement": "percentage of multipolar spindles", "setting": "SCC114 cells [4]", "result": 53, "unit": "%"}, {"measurement": "percentage of mitoses multipolar", "setting": "U2OS cells", "result": "more than 85%"}, {"measurement": "percentage of metaphases multipolar", "setting": "BJ fibroblasts [5]; BJ fibroblasts, 20 μM griseofulvin", "result": 3, "unit": "%"}, {"measurement": "percentage of mitotic cells harbouring bipolar spindles", "setting": "BJ fibroblasts [5]; normal diploid fibroblasts, 100 μM griseofulvin", "result": 87, "unit": "%"}, {"measurement": "percentage of multipolar spindles labelled with antibody to NuMA", "setting": "SCC114 cells [6]", "result": "99.5±0.5", "unit": "%"}, {"measurement": "percentage of multipolar spindles labelled with antibody to dynein", "setting": "SCC114 cells [6]", "result": "99±1", "unit": "%"}, {"measurement": "percentage of cells arrested in G2/M phase", "setting": "HeLa cells [7]", "result": "65.6±7.6", "unit": "%"}, {"measurement": "percentage of cells arrested in G2/M phase", "setting": "SCC114 cells [8]", "result": "91.2±3.9", "unit": "%"}, {"measurement": "percentage of cells in G2/M", "setting": "BJ fibroblasts [9]", "result": "19.1±1.4", "unit": "%"}, {"measurement": "inhibition at 100 µM", "setting": "BJ fibroblasts [10]", "result": "25 ± 1", "unit": "%"}, {"measurement": "IC50 at 22 h", "setting": "[11]", "result": 35, "unit": "µM"}, {"measurement": "percentage of interphase cells harbouring only short and convoluted microtubules", "setting": "[12]", "result": 98, "unit": "%"}, {"measurement": "percentage of interphase cells lacking clustering of centrioles into a single aggregate", "setting": "[12]", "result": 68, "unit": "%"}]}]}
